pIC50: −log10 of the molar value. “Also recorded” adds a separate entry of the source.
Columns and labels:
A2780 cells [1] = test: A2780 xenograft study in mice; assay type: in vivo, C.B-17-Igh-1b-Prkdc^scid mice; details: female SCID mice, s.c. A2780 tumors, p.o. BID for 5 or 10 days, dose selected from MTD study
Experimental: C.B-17-Igh-1b-Prkdc^scid mice (female) were injected s.c. with 5×10^6 A2780 cells (NCI) in the left flank. 10-12 days later when tumors reached 100-200 mm3 in size, mice were randomized into treatment groups of 8 mice per group including vehicle control and reference standard groups. The compounds were formulated in 60:30:10 PEG-400:D5W: Ethanol and administered p.o., at the dose volume of 10 ml/kg BID for a duration of 5 or 10 days. The dose used for efficacy was selected from the MTD (Maximum Tolerated Dose) study. Mice were weighed and tumors measured using vernier calipers every alternate day. Tumor volume was calculated according to the formula (length×width^2)/2. All animal work was approved by the Institutional Animal Care and Use Committee of Biological Resource Centre, Singapore.

A2780 cells [2] = test: In-vitro cell proliferation assay (SRB), A2780 cells; assay type: cell-based; details: Homo sapiens, A2780, 72 h, A2780 cells, 72 hours, SRB; read-out: A2780 IC50;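 also: viable cell number read as SRB absorbance, background from media-only wells subtracted, IC50 interpolated from percent inhibition at two bracketing compound concentrations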
NAMPT = NAMPT (Homo sapiens (Human), UniProt P43490); test: NAMPT biochemical inhibition assay (NMN quantified by mass spectrometry); details: NAMPT biochemical inhibition; read-out: Biochem IC50
NAMPT, sequence (P43490 whole entry): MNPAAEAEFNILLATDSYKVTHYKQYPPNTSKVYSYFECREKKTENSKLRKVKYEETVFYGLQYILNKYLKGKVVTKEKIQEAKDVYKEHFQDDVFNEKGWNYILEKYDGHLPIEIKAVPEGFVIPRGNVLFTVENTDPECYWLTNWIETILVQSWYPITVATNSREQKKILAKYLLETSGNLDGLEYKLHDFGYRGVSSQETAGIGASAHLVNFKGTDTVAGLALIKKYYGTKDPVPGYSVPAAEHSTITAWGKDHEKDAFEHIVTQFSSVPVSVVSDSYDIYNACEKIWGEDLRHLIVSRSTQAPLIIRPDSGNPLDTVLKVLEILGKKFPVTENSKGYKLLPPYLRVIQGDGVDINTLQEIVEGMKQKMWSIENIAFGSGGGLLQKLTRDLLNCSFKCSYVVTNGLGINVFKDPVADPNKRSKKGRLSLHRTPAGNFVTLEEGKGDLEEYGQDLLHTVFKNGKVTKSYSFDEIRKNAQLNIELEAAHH

| SMILES | effect on tumor growth in A2780 xenograft (A2780 cells [1]) | pIC50 (A2780 cells [2]) | pIC50 (NAMPT) |
| --- | --- | --- | --- |
| O=C(NCc1cccnc1)Nc1ccc(S(=O)(=O)N2CC3CCC(C2)O3)cc1 [1-(4-{8-oxa-3-azabicyclo[3.2.1]octane-3-sulfonyl}phenyl)-3-(pyridin-3-ylmethyl)urea] | tumor regression | 7.54 | – |
| O=C(NCc1cccnc1)Nc1ccc(S(=O)(=O)N[C@H]2C[C@@H]3CC[C@H]2C3)cc1 [1-(4-{[(1S,2S,4R)-bicyclo[2.2.1]heptan-2-yl]sulfamoyl}phenyl)-3-(pyridin-3-ylmethyl)urea] | delayed tumor growth | 7.34 | 8.15 |
| O=C(NCc1cccnc1)Nc1ccc(S(=O)(=O)c2ccccc2OC(F)(F)F)cc1 [1-(pyridin-3-ylmethyl)-3-(4-{[2-(trifluoromethoxy)benzene]sulfonyl}phenyl)urea] | tumor regression | 8.52 | 9.00 |
| O=C(NCc1ccc2nccn2c1)Nc1ccc(S(=O)(=O)c2ccccc2)cc1 [1-[4-(benzenesulfonyl)phenyl]-3-{imidazo[1,2-a]pyridin-6-ylmethyl}urea] | delayed tumor growth | 7.48 | – |
| O=C(NCc1cccnc1)Nc1ccc(S(=O)(=O)N2CCC(N3CCOCC3)CC2)cc1 [1-{4-[4-(morpholin-4-yl)piperidine-1-sulfonyl]phenyl}-3-(pyridin-3-ylmethyl)urea] | delayed tumor growth | 7.89 | 8.05 |
| C[C@@H]1CN(S(=O)(=O)c2ccc(NC(=O)NCc3ccc4nccn4c3)cc2)C[C@H](C)O1 [1-{4-[(2R,6S)-2,6-dimethylmorpholine-4-sulfonyl]phenyl}-3-{imidazo[1,2-a]pyridin-6-ylmethyl}urea] | delayed tumor growth | 7.60 | 8.10 |
| O=C(NCc1ccc2nccn2c1)Nc1ccc(S(=O)(=O)c2ccc(F)cc2)cc1 [1-{4-[(4-fluorobenzene)sulfonyl]phenyl}-3-{imidazo[1,2-a]pyridin-6-ylmethyl}urea] | tumor stasis; also recorded: delayed tumor growth | 7.54 | 8.52 |
| O=C(NCc1cccnc1)Nc1ccc(S(=O)(=O)Nc2cccc3ccccc23)cc1 [1-{4-[(naphthalen-1-yl)sulfamoyl]phenyl}-3-(pyridin-3-ylmethyl)urea] | delayed tumor growth | 7.72 | 9.00 |
| COc1ccc(C(F)(F)F)cc1NS(=O)(=O)c1ccc(NC(=O)NCc2cccnc2)cc1 [3-(4-{[2-methoxy-5-(trifluoromethyl)phenyl]sulfamoyl}phenyl)-1-(pyridin-3-ylmethyl)urea] | delayed tumor growth | 8.70 | 10.00 |
| O=C(NCc1cccnc1)Nc1ccc(S(=O)(=O)c2ccccc2)cc1 [3-[4-(benzenesulfonyl)phenyl]-1-(pyridin-3-ylmethyl)urea] | tumor stasis | – | – |
| Cc1ccc(Cl)c(NS(=O)(=O)c2ccc(NC(=O)NCc3cccnc3)cc2)c1 [3-{4-[(2-chloro-5-methylphenyl)sulfamoyl]phenyl}-1-(pyridin-3-ylmethyl)urea] | delayed tumor growth | 8.05 | 9.52 |
| C[C@@H]1CN(S(=O)(=O)c2ccc(NC(=O)NCc3cccnc3)cc2)C[C@H](C)O1 [3-{4-[(2R,6S)-2,6-dimethylmorpholine-4-sulfonyl]phenyl}-1-(pyridin-3-ylmethyl)urea] | delayed tumor growth | 8.05 | – |
| COc1cccc(NS(=O)(=O)c2ccc(NC(=O)NCc3cccnc3)cc2)c1C [3-{4-[(3-methoxy-2-methylphenyl)sulfamoyl]phenyl}-1-(pyridin-3-ylmethyl)urea] | delayed tumor growth | 7.24 | 8.70 |
| COc1cc(Cl)c(C)cc1NS(=O)(=O)c1ccc(NC(=O)NCc2cccnc2)cc1 [3-{4-[(4-chloro-2-methoxy-5-methylphenyl)sulfamoyl]phenyl}-1-(pyridin-3-ylmethyl)urea] | tumor stasis | 8.22 | 9.00 |
| O=C(NCc1cccnc1)Nc1ccc(S(=O)(=O)c2ccc(F)cc2)cc1 [3-{4-[(4-fluorobenzene)sulfonyl]phenyl}-1-(pyridin-3-ylmethyl)urea] | delayed tumor growth | 6.77 | 8.40 |
| COc1ccc(Cl)cc1NS(=O)(=O)c1ccc(NC(=O)NCc2cccnc2)cc1 [3-{4-[(5-chloro-2-methoxyphenyl)sulfamoyl]phenyl}-1-(pyridin-3-ylmethyl)urea] | delayed tumor growth | 8.52 | 9.05 |
| O=C(NCc1ccc2nccn2c1)Nc1ccc(S(=O)(=O)N2CCC(N3CCOCC3)CC2)cc1 [3-{imidazo[1,2-a]pyridin-6-ylmethyl}-1-{4-[4-(morpholin-4-yl)piperidine-1-sulfonyl]phenyl}urea] | delayed tumor growth | 8.30 | 8.40 |
| CC(C)(C)OC(=O)Nc1ccc(CNC(=O)Nc2ccc(S(=O)(=O)N3CCCCC3)cc2)cn1 [tert-butylN-{5-[({[4-(piperidine-1-sulfonyl)phenyl]carbamoyl}amino)methyl]pyridin-2-yl}carbamate] | – | 5.01 | 5.50 |
